Drawing on patent US10975068B2, “6-aminopyridin-3-yl thiazoles as modulators of RORγT” (Janssen Pharmaceutica NV, priority 2016, dated 2021), this text covers Kd, inhibition and IC50 for 9 compounds.

Each structure is given as a SMILES string.

Test [1] deals with human RORγt ligand binding domain (RORγt LBD) (Homo sapiens (Human), UniProt P51449). The experiment in a line: RORγt ThermoFluor® assay (thermal shift binding). The note with it: read-out: ThermoFluor® Assay, Kd. The text has this:
ThermoFluor® is a fluorescence based assay that estimates ligand binding affinities by measuring the effect of a ligand on protein thermal stability (Pantoliano, M. W., Petrella, E. C., Kwasnoski, J. D., Lobanov, V. S., Myslik, J., Graf, E., Carver, T., Asel, E., Springer, B. A., Lane, P., and Salemme, F. R. (2001) High-density miniaturized thermal shift assays as a general strategy for drug discovery. J Biomol Screen 6, 429-40, and Matulis, D., Kranz, J. K., Salemme, F. R., and Todd, M. J. (2005) Thermodynamic stability of carbonic anhydrase: measurements of binding affinity and stoichiometry using ThermoFluor. Biochemistry 44, 5258-66). This approach is applicable to a wide variety of systems, and rigorous in theoretical interpretation through quantitation of equilibrium binding constants (KD).
The shift in the melting point described as a ΔTm is proportional to the concentration and affinity of the ligand. The compound potency may be compared as a rank order of either ΔTm values at a single compound concentration or in terms of KD values, estimated from concentration response curves.
RORγt ThermoFluor® Assay Construct
For the RORγt construct used in the ThermoFluor® assay, numbering for the nucleotide sequences was based on the reference sequence for human RORγt, transcript variant 2, NCBI Accession: NM_001001523.1 (SEQ ID NO:1). Nucleotides 850-1635 (SEQ ID NO:2) coding for the wild type human RORγt ligand binding domain (RORγt LBD) were cloned into the pHIS1 vector, a modified pET E. coli expression vector (Accelagen, San Diego), containing an in-frame N-terminal His-tag and a TurboTEV protease cleavage site (ENLYFQG, SEQ ID NO:3) upstream of the cloned insert sequence. The amino acid sequence for the RORγt construct used in the Thermofluor® assay is shown as SEQ ID NO:4.
ThermoFluor® experiments were carried out using instruments owned by Janssen Research and Discovery, L.L.C. through its acquisition of 3-Dimensional Pharmaceuticals, Inc. 1,8-ANS (Invitrogen) was used as a fluorescent dye. Protein and compound solutions are dispensed into black 384-well polypropylene PCR microplates (Abgene) and overlayed with silicone oil (1 μL, Fluka, type DC 200) to prevent evaporation.
Bar-coded assay plates are robotically loaded onto a thermostatically controlled PCR-type thermal block and then heated at a typical ramp-rate of 1° C./min for all experiments. Fluorescence was measured by continuous illumination with UV light (Hamamatsu LC6) supplied via fiber optic and filtered through a band-pass filter (380-400 nm; >6 OD cutoff). Fluorescence emission of the entire 384-well plate was detected by measuring light intensity using a CCD camera (Sensys, Roper Scientific) filtered to detect 500±25 nm, resulting in simultaneous and independent readings of all 384 wells. Images were collected at each temperature, and the sum of the pixel intensity in a given area of the assay plate was recorded versus temperature. Reference wells contained RORγt without compounds, and the assay conditions were as follows: • 0.065 mg/mL RORγt • 60 μM 1,8-ANS • 100 mM Hepes, pH 7.0 • 10 mM NaCl • 2.5 mM GSH • 0.002% Tween-20
Project compounds were arranged in a pre-dosed mother plate (Greiner Bio-one) wherein compounds are serially diluted in 100% DMSO by 1:2 from a high concentration of 10 mM over 12 columns within a series (column 12 is a reference well containing DMSO, no compound). The compounds were robotically dispensed directly into assay plates (×=46 nL) using a Hummingbird capillary liquid handling instrument (Digilab). Following compound dispense, protein and dye in buffer was added to achieve the final assay volume of 3 μL, followed by 1 μL of silicone oil.

For another test, the target named is full-length human RORγt (Homo sapiens (Human), UniProt P51449). The experiment in a line: RORγt (full-length human) reporter assay, Conditions B or C. Format: cell-based. As to conditions: for inhibition at 3 µM: at 3 μM compound concentration, read-out: RORγt (FL) Reporter Assay B or C, % inhibition; for IC50: read-out: RORγt (FL) Reporter Assay B or C, IC50. The source says:
RORγt (Full-Length Human) Reporter Assay:
Cells used in this assay were transiently co-transfected with three different plasmids, one expressing the GAL4-DNA binding domain (DBD)-RORγt fusion protein under control of a CMV promoter (NH2-Gal4-DBD:RORC-COOH in pCMV-BD, Stratagene #211342), and two reporter plasmids—the firefly luciferase reporter under control of a GAL4 promoter (pFR-Luc 2×GAL4) and Renilla luciferase reporter under control of CMV promoter (pRL-CMV, Promega # E2261). The full-length coding sequence was used for human RORγt, i.e., nucleotides 142-1635 of human RORγt, transcript variant 2, NCBI Accession: NM_001001523.1 (SEQ ID NO:1). HEK293T cells were plated at 35,000 per well in 96-well plate in medium of DMEM with 10% FBS. After 18-22 hours incubation, the transfection was carried out by using a PEI solution with 170.5 ng total DNA/well (50 ng pCMV-BD-ROR plus 20 ng of pFR-Luc reporter and 0.5 ng of pRL-CMV reporter plus 100 ng Carrier DNA (Clontech #630440) for each well). 4-6 hours after transfection, cells were treated with compounds for overnight in the medium with final concentration of FBS 1.3% and DMSO 0.1%. After overnight (16 to 20 hours) incubation, media were removed and cells were lysed with 50 μL Glo Lysis Buffer (Promega) for 10-15 minutes followed by 10 minute incubation with 50 μL Dual Glo reagent (Promega) at room temperature. Firefly luciferase luminescence was measured using a BMG Pherastar plate reader. To each well, 50 μL Stop and Glo reagent was added and incubated for 10 minutes at room temperature. Renilla luminescence was measured using a BMG Pherastar plate reader. To calculate the effect of compounds on RORγt activity, firefly values were normalized against values of DMSO only and values of reference compound at saturating concentration, then further normalized against Renilla signals. IC50s were generated by plotting final Renilla normalized data against compound concentration and percent inhibition was calculated against DMSO control.
Cells used in this assay were transiently co-transfected with three different plasmids, one expressing the GAL4-DNA binding domain (DBD)-RORγt fusion protein under control of a CMV promoter (NH2-Gal4-DBD:RORC-COOH in pCMV-BD, Stratagene #211342), and two reporter plasmids—the firefly luciferase reporter under control of a GAL4 promoter (pFR-Luc 2×GAL4) and Renilla luciferase reporter under control of CMV promoter (pRL-CMV, Promega # E2261). The full-length coding sequence was used for human RORγt, i.e., nucleotides 142-1635 of human RORγt, transcript variant 2, NCBI Accession: NM_001001523.1 (SEQ ID NO:1). HEK293T cells were plated at 8750 cells per well in 384-well plate in medium of DMEM with 10% FBS. After 18-22 hours incubation, the transfection was carried out by using a PEI solution with 42.6 ng total DNA/well (12.5 ng pCMV-BD-ROR plus 5 ng of pFR-Luc reporter and 0.125 ng of pRL-CMV reporter plus 25 ng Carrier DNA (Clontech #630440) for each well). 4-6 hours after transfection, cells were treated with compounds for overnight in the medium with final concentration of FBS 1.3% and DMSO 0.1%. After overnight (16 to 20 hours) incubation, media were removed and cells were lysed with 20 μL Glo Lysis Buffer (Promega) for 10-15 minutes followed by 10 minute incubation with 20 μL Dual Glo reagent (Promega) at room temperature. Firefly luciferase luminescence was measured using a BMG Pherastar plate reader. To each well, 20 μL Stop and Glo reagent was added and incubated for 10 minutes at room temperature. Renilla luminescence was measured using a BMG Pherastar plate reader. To calculate the effect of compounds on RORγt activity, firefly values were normalized against values of DMSO only and values of reference compound at saturating concentration, then further normalized against Renilla signals.

human RORγt ligand binding domain (RORγt LBD), sequence (P51449 other isoform, or with tags, fused parts or gaps): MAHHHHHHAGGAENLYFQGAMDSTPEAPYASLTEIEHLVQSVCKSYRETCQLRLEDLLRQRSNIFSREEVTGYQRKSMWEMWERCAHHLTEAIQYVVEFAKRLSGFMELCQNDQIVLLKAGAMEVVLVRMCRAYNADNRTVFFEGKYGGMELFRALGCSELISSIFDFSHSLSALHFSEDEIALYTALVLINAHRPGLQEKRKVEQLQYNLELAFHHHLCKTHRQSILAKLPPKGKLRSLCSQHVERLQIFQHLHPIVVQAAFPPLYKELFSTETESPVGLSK
full-length human RORγt, sequence (P51449 other isoform, or with tags, fused parts or gaps): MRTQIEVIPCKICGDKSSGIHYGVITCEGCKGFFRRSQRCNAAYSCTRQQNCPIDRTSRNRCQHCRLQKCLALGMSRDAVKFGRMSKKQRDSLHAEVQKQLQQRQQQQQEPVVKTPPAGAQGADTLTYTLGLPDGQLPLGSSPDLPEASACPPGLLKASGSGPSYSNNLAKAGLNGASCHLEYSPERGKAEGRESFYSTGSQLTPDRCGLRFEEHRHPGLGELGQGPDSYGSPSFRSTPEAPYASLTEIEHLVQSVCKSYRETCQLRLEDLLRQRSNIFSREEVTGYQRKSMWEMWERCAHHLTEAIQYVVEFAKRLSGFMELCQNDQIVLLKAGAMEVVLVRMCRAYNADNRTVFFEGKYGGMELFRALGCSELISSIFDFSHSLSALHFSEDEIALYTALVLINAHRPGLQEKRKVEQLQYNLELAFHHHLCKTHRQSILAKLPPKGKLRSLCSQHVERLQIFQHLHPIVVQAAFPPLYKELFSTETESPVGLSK

As for `C[C@H]1CCCN1C(=O)c1nc(C(=O)N[C@@H]2CC[C@H]2O)sc1-c1cnc(NC(C)(C)C)cc1C(F)F` (relative stereo) [Example 403, 5-(6-(tert-Butylamino)-4-(difluoromethyl)pyridin-3-yl)-N-(1R*,2R*)-2-hydroxycyclobutyl)-4-((S)-2-methylpyrrolidine-1-carbonyl)thiazole-2-carboxamide], the Kd in test [1] was determined as 4.5 nM. For the same compound, at full-length human RORγt, the inhibition at 3 µM was determined as 108% and the IC50 worked out at 36 nM.

Consider `CC(C)[C@H](C)Nc1cc(C(F)F)c(-c2sc(C(=O)NCC(C)(C)O)nc2C(=O)N2CCC[C@@H]2C)cn1` [Example 300, 5-(4-(Difluoromethyl)-6-(((S)-3-methylbutan-2-yl)amino)pyridine-3-yl)-N-(2-hydroxy-2-methylpropyl)-4-((S)-2-methylpyrrolidine-1-carbonyl)thiazole-2-carboxamide], for which, in test [1], the Kd amounted to 1.6 nM. On full-length human RORγt, the inhibition at 3 µM was determined as 100% and the IC50 was 29 nM.

For `C[C@H](NC(=O)c1nc(C(=O)N2CCC[C@@H]2C)c(-c2cnc(N[C@H](C3CC3)C(F)(F)F)cc2C(F)F)s1)C(C)(C)O` [Example 333, 5-(6-(((R)-1-Cyclopropyl-2,2,2-trifluoroethyl)amino)-4-(difluoromethyl)pyridin-3-yl)-N—((S)-3-hydroxy-3-methylbutan-2-yl)-4-((S)-2-methylpyrrolidine-1-carbonyl)thiazole-2-carboxamide], the Kd in test [1] came to 0.78 nM. Besides, on full-length human RORγt, the inhibition at 3 µM stood at 98% and the IC50 amounted to 30 nM.

On to `O=C(N[C@@H]1CCC[C@H]1O)c1nc(C(=O)N2C3CCC2CC3)c(-c2cnc(N[C@@H](C3CC3)C(F)(F)F)cc2C(F)F)s1` [Example 439, 4-((1s,4s)-7-Azabicyclo[2.2.1]heptane-7-carbonyl)-5-[6-[[(1S)-1-cyclopropyl-2,2,2-trifluoro-ethyl]amino]-4-(difluoromethyl)-3-pyridyl]-N-[(1R,2R)-2-hydroxycyclopentyl]thiazole-2-carboxamide], for which, in test [1], the Kd stood at 0.27 nM. Also, on full-length human RORγt, the inhibition at 3 µM worked out at 102% and the IC50 came to 10 nM.

Regarding `CC[C@H](Nc1cc(C(F)F)c(-c2sc(C(=O)N[C@@H](C)C(C)(C)O)nc2C(=O)N2CCC[C@@H]2C)cn1)C(F)(F)F` [Example 272, 5-[4-(Difluoromethyl)-6-[[(1S)-1-(trifluoromethyl)propyl]amino]-3-pyridyl]-N-[(1S)-2-hydroxy-1,2-dimethyl-propyl]-4-[(2S)-2-methylpyrrolidine-1-carbonyl]thiazole-2-carboxamide], the Kd in test [1] is 2.1 nM. Further, on full-length human RORγt, the inhibition at 3 µM came to 105% and the IC50 worked out at 18 nM.

`C[C@H]1CCCN1C(=O)c1nc(C(=O)N[C@@H]2CC[C@H]2O)sc1-c1cnc(NC(C)(C)C)cc1C(F)(F)F` (relative stereo) [Example 370, 5-(6-(tert-Butylamino)-4-(trifluoromethyl)pyridin-3-yl)-N-((1R*,2R*)-2-hydroxycyclobutyl)-4-((S)-2-methylpyrrolidine-1-carbonyl)thiazole-2-carboxamide]: the Kd in test [1] was 0.69 nM. Besides, at full-length human RORγt, the inhibition at 3 µM turned out to be 96% and the IC50 was 10 nM.

In the case of `C[C@H](NC(=O)c1nc(C(=O)N2C3CCC2CC3)c(-c2cnc(N[C@@H](C)C(F)(F)F)cc2C(F)F)s1)C(C)(C)O` [Example 446, 4-((1s,4s)-7-Azabicyclo[2.2.1]heptane-7-carbonyl)-5-[4-(difluoromethyl)-6-[[(1S)-2,2,2-trifluoro-1-methyl-ethyl]amino]-3-pyridyl]-N-[(1S)-2-hydroxy-1,2-dimethyl-propyl]thiazole-2-carboxamide], the Kd in test [1] is 13 nM. On full-length human RORγt, the inhibition at 3 µM came out at 108% and the 50% inhibitory concentration (IC50) was found to be 180 nM.

On to `C[C@H](Nc1cc(C(F)F)c(-c2sc(C(=O)N[C@@H]3CC[C@@H](O)C3)nc2C(=O)N2CCC[C@@H]2C)cn1)C(F)(F)F` [Example 289, 5-(4-(Difluoromethyl)-6-(((S)-1,1,1-trifluoropropan-2-yl)amino)pyridin-3-yl)-N-((1R,3R)-3-hydroxycyclopentyl)-4-((S)-2-methylpyrrolidine-1-carbonyl)thiazole-2-carboxamide], for which the Kd in test [1] came out at 3.8 nM. In addition, on full-length human RORγt, the inhibition at 3 µM came out at 99% and the IC50 was 69 nM.

`C[C@H]1CCCN1C(=O)c1nc(C(=O)NCC(C)(C)N)sc1-c1cnc(NC(C)(C)C)cc1C(F)(F)F` [Example 355, N-(2-Amino-2-methyl-propyl)-5-[6-(tert-butylamino)-4-(trifluoromethyl)-3-pyridyl]-4-[(2S)-2-methylpyrrolidine-1-carbonyl]thiazole-2-carboxamide]: the Kd in test [1] was determined as 22 nM. For the same compound, on full-length human RORγt, the inhibition at 3 µM is 98% and the IC50 was 170 nM.
